Experiments:
[1] = tested on: anti-cortisol antibody (ACA); assay: Competition ELISA: increasing cortisol against plate-coated phagotope for anti-cortisol antibody; assay type: binding; settings: increasing amounts of cortisol, constant phage, FIG. 3
Experimental: Plates were coated with phagotopes and blocked as for the direct ELISA. […] Increasing amounts of cortisol was then added to 100 μl of specific antibody in 1% PBS-polyoxyethylene (20) sorbitan monolaurate. 100 μl replicates (4-6) of antibody/cortisol inhibitor was then left overnight.
The plates were washed and developed as for the direct ELISA. The results of these studies are illustrated in FIG. 3.

[2] = tested on: anti-cortisol antibody (ACA); assay: ELISA binding of phagotopes to anti-cortisol antibody (biopanning screen); settings: phagotope expressing peptide, FIG. 2
Experimental: Identification of reactive phagotopes was conducted by either direct, where the phagotopes are coated directly to the plate, or capture ELISA, were the phagotopes are tethered to the plate via the selection antibody. The two ELISA methods were employed because direct ELISA identifies highly reactive phagotopes that are likely to contain a strong motif, whereas the capture ELISA is more sensitive, therefore also selecting for phagotopes involving only weak interactions. For the direct ELISA, phage preparations were diluted in sterile PBS and duplicate samples of 100 μl/well were added to a 96-well microtitre plate. Plates were left overnight at 4° C., blocked for 2 hours at room temperature with 1% skimmed milk powder and 0.05% Tween 20 in PBS ph 7.4 and washed three times in Tris-buffered saline, pH 7.4, containing 0.05% polyoxyethylene (20) sorbitan monolaurate (TWEEN 20™). 100 μl of specific antibody diluted to 1 μg/ml in 1% PBS-polyoxyethylene (20) sorbitan monolaurate were added and left overnight. […] Absorbances were read at 415 nm after 30 minutes and 60 minutes. […]

[3] = tested on: anti-gamma-interferon antibody; assay: Competition ELISA: increasing gamma-interferon against constant phage containing peptide mimic; assay type: binding; settings: constant phage containing the mimic, detected with anti-phage antibody
Experimental: In order to identify peptide mimics, the procedure for described in Example 1 was followed. FA42™ anti-Gamma-interferon monoclonal antibody (Cellestis, Inc, Valencia, Calif.) was used in the screening of peptide mimics.
Identification of epitope sites that the peptides represented were then determined by comparing the peptide sequences with the known γ-interferon sequence. The identified peptides were then evaluated by the ability of gamma-interferon to inhibit binding of anti-γ-interferon antibody in ELISA. The results of this study is illustrated in FIG. 3 for peptide IFN-28. […] Phage binding was identified, in this study, using a specific anti-phage antibody.

[4] = tested on: anti-γ-interferon antibody (FA42); assay: Competition of fluorescently tagged peptides with IFN-41 expressing phage for binding to FA42; settings: fluorescently tagged peptide against phage
Experimental: Further analysis of the peptide mimics sought to ascertain whether these peptides operated in the same manner as they do when expressed on the surface of the phage. In order to ascertain if these peptides operated in the same manner as they do when expressed on the surface of the phage, a competition assay was performed. In this assay, the newly created peptides were used to compete with the peptides on the surface of the phage for binding to FA42.
A gradient of inhibition of IFN-41 expressing phage binding by the two peptides is shown. The control peptide (ACA-20) is a mimic of cortisol. […] Additionally, FIG. 5 illustrates gradient inhibition of IFN-41 and IFN-19 using anti-gamma-interferon antibody.

Substance | competition by cortisol for antibody binding [1] | anti-cortisol antibody binding [2] | competition with IFN-41 expressing phage for binding to anti-γ-interferon antibody [4] | also measured
ACA 20 (1): phagotope expressing peptide with high anti-cortisol antibody binding; probably clone of ACA-20 (YFTPVFINPTQV) | overlapping, dose-response competitive binding curves | comparatively high anti-cortisol antibody binding |  | 
ACA 20 (2): phagotope expressing peptide with high anti-cortisol antibody binding; probably clone of ACA-20 (YFTPVFINPTQV) | overlapping, dose-response competitive binding curves | comparatively high anti-cortisol antibody binding |  | 
SQYENNH (CSQYENNHC; listed as Homo sapiens) [IFN-28] |  |  |  | competition for binding to anti-gamma-interferon antibody [3]: graded competition
TQYEQHY (CTQYEQHYC; listed as Homo sapiens) [IFN-41] |  |  | competed | 
TQYSQQM (CSQYSQLYC) [IFN-19] |  |  | competed | 
YFTPVFINPTQV (listed as Homo sapiens) [ACA-20, control peptide in the gamma-interferon assay] |  |  | did not compete | 
